The numbers were not newly measured in patent publication US10059681B2, “Disubstituted maleic anhydrides with altered kinetics of ring closure” (Arrowhead Madison Inc., priority 2011, dated 2018), which cites them from elsewhere.

The conditions of data set [1]: Kirby 1980.
For data set [2] the following is noted: Eberson et al. 1971.

For `CNC(=O)C1=C(C(=O)O)CCCC1`, the “kobs of amine release” value in data set [1] is on record as 3.5×10^−2.

With `C/C(C(=O)O)=C(\C)C(=O)O` [dimethyl maleic acid], the “K=k1/k−1 of equilibrium in water toward ring closure” value in data set [2] is listed as 5.3.

For `O=C(O)c1ccccc1C(=O)O` [phthalic acid], the “K=k1/k−1 of equilibrium in water toward ring closure” value in data set [2] is 10^−2.
